Organism: Rattus norvegicus
Assay: Open TG-GATES - Regimen: Daily Repeat
Format: toxicity, organism-based, Sprague-Dawley
Parameters: regimen Daily Repeat, gender Male, age 6 weeks
Conditions: in vivo, po, route gavage; for APTT / Bas / Eos / Fbg / Hb / Ht / Lym / MCH / MCHC / MCV / Mono / Neu / Plat / RBC / Ret / WBC: tissue Blood; for KIDNEY_L / KIDNEY_R / KIDNEY_TOTAL: tissue Kidney; for ALP / ALT / AST / BUN / CRE / DBIL / GLC / IP / K / LDH / Na / PL / RALB / TBIL / TC / TG / TP / gamma-GTP: tissue Plasma
[1] = 30 mg/kg, 72 h, dose level Middle, time 3 day
[2] = 30 mg/kg, […], dose level Middle, time 7 day
[3] = 30 mg/kg, […], dose level Middle, time 14 day
[4] = 30 mg/kg, […], dose level Middle, time 28 day
[5] = 100 mg/kg, 72 h, dose level High, time 3 day
[6] = 100 mg/kg, […], dose level High, time 7 day
[7] = 100 mg/kg, […], dose level High, time 14 day
[8] = 100 mg/kg, […], dose level High, time 28 day

## CN(C)CCC=C1c2ccccc2COc2ccccc21 [DOXEPIN]
[1]
  TERMINAL_BW: 221 g
  APTT: 16.8 s
  Bas: 0%
  Eos: 0.8%
  Fbg: 336.2 mg/dL
  Hb: 13 g/dL
  Ht: 37.8%
  Lym: 73.4%
  MCH: 21.6 pg
  MCHC: 34.4%
  MCV: 62.9 fL
  Mono: 2.8%
  Neu: 22.6%
  Plat: 113.6 x10_4/uL
  RBC: 600.6 x10_4/ul
  Ret: 6.9%
  WBC: 66.4 x10_2/uL
  KIDNEY_L: 1 g
  KIDNEY_R: 1 g
  KIDNEY_TOTAL: 2 g
  ALP: 1714.2 IU/L
  ALT: 50 IU/L
  AST: 75 IU/L
  BUN: 15 mg/dL
  CRE: 0.2 mg/dL
  DBIL: 0.018 mg/dL
  GLC: 193.6 mg/dL
  IP: 7.3 mg/dL
  K: 4.5 meq/L
  LDH: 94 IU/L
  Na: 142.2 meq/L
  PL: 147.6 mg/dL
  RALB: 2.7 g/dL
  TBIL: 0.032 mg/dL
  TC: 81.2 mg/dL
  TG: 97 mg/dL
  TP: 5.9 g/dL
  gamma-GTP: 1.2 IU/L
[2]
  TERMINAL_BW: 252.6 g
  APTT: 18.3 s
  Bas: 0%
  Eos: 1%
  Fbg: 293.4 mg/dL
  Hb: 13.4 g/dL
  Ht: 38.2%
  Lym: 81.4%
  MCH: 21.5 pg
  MCHC: 35.1%
  MCV: 61.2 fL
  Mono: 2.6%
  Neu: 14.4%
  Plat: 115.8 x10_4/uL
  RBC: 624.8 x10_4/ul
  Ret: 5.8%
  WBC: 90.6 x10_2/uL
  KIDNEY_L: 1 g
  KIDNEY_R: 1 g
  KIDNEY_TOTAL: 2.1 g
  ALP: 1770.4 IU/L
  ALT: 48 IU/L
  AST: 72.6 IU/L
  BUN: 17.4 mg/dL
  CRE: 0.2 mg/dL
  DBIL: 0.018 mg/dL
  GLC: 191.2 mg/dL
  IP: 7.2 mg/dL
  K: 4.3 meq/L
  LDH: 76.2 IU/L
  Na: 142 meq/L
  PL: 145.4 mg/dL
  RALB: 2.7 g/dL
  TBIL: 0.034 mg/dL
  TC: 75.8 mg/dL
  TG: 106.4 mg/dL
  TP: 5.7 g/dL
  gamma-GTP: 1.4 IU/L
[3]
  TERMINAL_BW: 310 g
  APTT: 16.2 s
  Bas: 0%
  Eos: 1%
  Fbg: 310.4 mg/dL
  Hb: 14 g/dL
  Ht: 40.7%
  Lym: 77.2%
  MCH: 20.9 pg
  MCHC: 34.5%
  MCV: 60.6 fL
  Mono: 2.4%
  Neu: 18.8%
  Plat: 101.5 x10_4/uL
  RBC: 671.4 x10_4/ul
  Ret: 4.6%
  WBC: 80.3 x10_2/uL
  KIDNEY_L: 1.2 g
  KIDNEY_R: 1.2 g
  KIDNEY_TOTAL: 2.4 g
  ALP: 1433.6 IU/L
  ALT: 42.8 IU/L
  AST: 69 IU/L
  BUN: 18.8 mg/dL
  CRE: 0.2 mg/dL
  DBIL: 0.014 mg/dL
  GLC: 191.4 mg/dL
  IP: 6.8 mg/dL
  K: 4.1 meq/L
  LDH: 69.6 IU/L
  Na: 142.8 meq/L
  PL: 148.6 mg/dL
  RALB: 2.7 g/dL
  TBIL: 0.026 mg/dL
  TC: 71.4 mg/dL
  TG: 153.8 mg/dL
  TP: 6 g/dL
  gamma-GTP: 1 IU/L
[4]
  TERMINAL_BW: 397.6 g
  APTT: 18 s
  Bas: 0%
  Eos: 1.4%
  Fbg: 282 mg/dL
  Hb: 14.9 g/dL
  Ht: 42%
  Lym: 79%
  MCH: 19.7 pg
  MCHC: 35.4%
  MCV: 55.8 fL
  Mono: 2.6%
  Neu: 16.4%
  Plat: 112.2 x10_4/uL
  RBC: 754.2 x10_4/ul
  Ret: 2.4%
  WBC: 93.4 x10_2/uL
  KIDNEY_L: 1.4 g
  KIDNEY_R: 1.3 g
  KIDNEY_TOTAL: 2.7 g
  ALP: 1369.6 IU/L
  ALT: 43.6 IU/L
  AST: 67.2 IU/L
  CRE: 0.2 mg/dL
  DBIL: 0.022 mg/dL
  GLC: 185 mg/dL
  IP: 6.1 mg/dL
  K: 4.1 meq/L
  LDH: 81.4 IU/L
  Na: 143.6 meq/L
  PL: 140.6 mg/dL
  RALB: 2.8 g/dL
  TBIL: 0.034 mg/dL
  TC: 66 mg/dL
  TG: 166.4 mg/dL
  TP: 6.2 g/dL
  gamma-GTP: 1.4 IU/L
[5]
  TERMINAL_BW: 208.5 g
  APTT: 18.1 s
  Bas: 0%
  Eos: 1.2%
  Fbg: 285 mg/dL
  Hb: 13.6 g/dL
  Ht: 39.2%
  Lym: 78%
  MCH: 21.3 pg
  MCHC: 34.7%
  MCV: 61.5 fL
  Mono: 3.2%
  Neu: 17.2%
  Plat: 113.2 x10_4/uL
  RBC: 637.4 x10_4/ul
  Ret: 6.3%
  WBC: 77.5 x10_2/uL
  KIDNEY_L: 0.9 g
  KIDNEY_R: 0.9 g
  KIDNEY_TOTAL: 1.8 g
  ALP: 1907.8 IU/L
  ALT: 51 IU/L
  AST: 75.4 IU/L
  BUN: 16.6 mg/dL
  CRE: 0.2 mg/dL
  DBIL: 0.014 mg/dL
  GLC: 196.2 mg/dL
  IP: 8.4 mg/dL
  K: 4.2 meq/L
  LDH: 86 IU/L
  Na: 142.6 meq/L
  PL: 145.2 mg/dL
  RALB: 2.7 g/dL
  TBIL: 0.038 mg/dL
  TC: 85.4 mg/dL
  TG: 58.2 mg/dL
  TP: 5.7 g/dL
  gamma-GTP: 1.2 IU/L
[6]
  TERMINAL_BW: 235 g
  APTT: 16.4 s
  Bas: 0%
  Eos: 1.2%
  Fbg: 311.4 mg/dL
  Hb: 14 g/dL
  Ht: 40.1%
  Lym: 75.6%
  MCH: 21.1 pg
  MCHC: 34.9%
  MCV: 60.4 fL
  Mono: 2.8%
  Neu: 20.2%
  Plat: 106.3 x10_4/uL
  RBC: 665.6 x10_4/ul
  Ret: 5.1%
  WBC: 94.7 x10_2/uL
  KIDNEY_L: 1 g
  KIDNEY_R: 1 g
  KIDNEY_TOTAL: 2 g
  ALP: 1566.6 IU/L
  ALT: 44.8 IU/L
  AST: 72.4 IU/L
  BUN: 17.4 mg/dL
  CRE: 0.2 mg/dL
  DBIL: 0.018 mg/dL
  GLC: 193 mg/dL
  IP: 7.9 mg/dL
  K: 4.1 meq/L
  LDH: 88.8 IU/L
  Na: 142 meq/L
  PL: 145 mg/dL
  RALB: 2.8 g/dL
  TBIL: 0.036 mg/dL
  TC: 77 mg/dL
  TG: 116.8 mg/dL
  TP: 6 g/dL
  gamma-GTP: 1.8 IU/L
[7]
  TERMINAL_BW: 276.3 g
  APTT: 17.9 s
  Bas: 0%
  Eos: 1%
  Fbg: 284.2 mg/dL
  Hb: 14.7 g/dL
  Ht: 42.7%
  Lym: 77.6%
  MCH: 20.2 pg
  MCHC: 34.6%
  MCV: 58.4 fL
  Mono: 3.2%
  Neu: 17.6%
  Plat: 101.4 x10_4/uL
  RBC: 731 x10_4/ul
  Ret: 3.8%
  WBC: 106 x10_2/uL
  KIDNEY_L: 1.1 g
  KIDNEY_R: 1.1 g
  KIDNEY_TOTAL: 2.2 g
  ALP: 1470 IU/L
  ALT: 46.2 IU/L
  AST: 71.4 IU/L
  BUN: 17.8 mg/dL
  CRE: 0.2 mg/dL
  DBIL: 0.012 mg/dL
  GLC: 179.8 mg/dL
  IP: 8.1 mg/dL
  K: 4.3 meq/L
  LDH: 53.8 IU/L
  Na: 142.8 meq/L
  PL: 141.6 mg/dL
  RALB: 2.7 g/dL
  TBIL: 0.022 mg/dL
  TC: 76 mg/dL
  TG: 106.6 mg/dL
  TP: 6 g/dL
  gamma-GTP: 1.2 IU/L
[8]
  TERMINAL_BW: 344.8 g
  APTT: 20.2 s
  Bas: 0%
  Eos: 1.2%
  Fbg: 290.6 mg/dL
  Hb: 16.2 g/dL
  Ht: 45.8%
  Lym: 78.8%
  MCH: 19.9 pg
  MCHC: 35.4%
  MCV: 56.2 fL
  Mono: 1.8%
  Neu: 17.8%
  Plat: 100.9 x10_4/uL
  RBC: 815.6 x10_4/ul
  Ret: 2.3%
  WBC: 90.5 x10_2/uL
  KIDNEY_L: 1.3 g
  KIDNEY_R: 1.3 g
  KIDNEY_TOTAL: 2.6 g
  ALP: 1314.6 IU/L
  ALT: 46.8 IU/L
  AST: 68.6 IU/L
  BUN: 17.2 mg/dL
  CRE: 0.2 mg/dL
  DBIL: 0.018 mg/dL
  GLC: 181 mg/dL
  IP: 6.6 mg/dL
  K: 4.1 meq/L
  LDH: 83.4 IU/L
  Na: 144.2 meq/L
  PL: 139.6 mg/dL
  RALB: 3 g/dL
  TBIL: 0.028 mg/dL
  TC: 79.2 mg/dL
  TG: 74.6 mg/dL
  TP: 6.4 g/dL
  gamma-GTP: 1 IU/L
